Data set [1] in a line: Bioavailability in Sprague-Dawley rat at 20 mg/kg, ip measured upto 1440 mins by LC-MS/MS analysis. Particulars: in vivo. The data set is classed as ADME, organism-based.
Data set [2] can be described thus: AUC (0 to infinity) in Sprague-Dawley rat at 5 mg/kg, iv measured upto 1440 mins by LC-MS/MS analysis. It is filed as ADME, organism-based. Particulars: in vivo.
Data set [3] can be described thus: Toxicity in BALB/c mouse assessed as appearance of lesions in spleen at 30 mg/kg, ip measured after 3 days by H and E staining based analysis. It is filed as organism-based. Particulars: in vivo, 72 h, time 3 day.
Data set [4] can be described thus: Toxicity in BALB/c mouse assessed as effect on BUN level at 30 mg/kg, ip measured after 3 days by biochemical analysis. It is filed as organism-based. Particulars: in vivo, 72 h, time 3 day.
Data set [5] is described as follows: Toxicity in BALB/c mouse assessed as appearance of lesions in kidney at 30 mg/kg, ip measured after 3 days by H and E staining based analysis. It is filed as organism-based. Particulars: in vivo, 72 h, time 3 day.
A short description of data set [6]: Volume of distribution at steady state in Sprague-Dawley rat at 20 mg/kg, po measured upto 1440 mins by LC-MS/MS analysis. It is filed as ADME, organism-based. Particulars: in vivo, 24 h.
Data set [7] can be described thus: Clearance in Sprague-Dawley rat at 20 mg/kg, po measured upto 1440 mins by LC-MS/MS analysis. The data set is classed as ADME, organism-based. Particulars: in vivo, 24 h.
Data set [8] is described as follows: Clearance in Sprague-Dawley rat at 5 mg/kg, iv measured upto 1440 mins by LC-MS/MS analysis. It is filed as ADME, organism-based. Particulars: in vivo.
Data set [9] is described as follows: Half life in Sprague-Dawley rat at 5 mg/kg, iv measured upto 1440 mins by LC-MS/MS analysis. The data set is classed as ADME, organism-based. Particulars: in vivo.
Data set [10] can be described thus: Toxicity in BALB/c nude mouse xenografted with human LNCaP cells assessed as reduction in body weight at 30 mg/kg, ip measured every 2 days for 28 days. The data set is classed as organism-based. Particulars: in vivo, 672 h, time 28 day. In general terms: Xenograft models place foreign cells or tissue in a host animal.
The nature of data set [11]: Toxicity in BALB/c mouse assessed as effect on serum ALT level at 30 mg/kg, ip measured after 3 days by biochemical analysis. It is filed as organism-based. Particulars: in vivo, 72 h, time 3 day.
Data set [12] in a line: AUC (0 to infinity) in Sprague-Dawley rat at 20 mg/kg, ip measured upto 1440 mins by LC-MS/MS analysis. The data set is classed as ADME, organism-based. Particulars: in vivo.
Data set [13] in a line: Cmax in Sprague-Dawley rat at 20 mg/kg, po measured upto 1440 mins by LC-MS/MS analysis. Particulars: in vivo. It is filed as ADME, organism-based.
Data set [14] in a line: Toxicity in BALB/c mouse assessed as effect on serum uric acid level at 30 mg/kg, ip measured after 3 days by biochemical analysis. It is filed as organism-based. Particulars: in vivo, 72 h, time 3 day.
Data set [15] can be described thus: Toxicity in BALB/c mouse assessed as appearance of lesions in heart at 30 mg/kg, ip measured after 3 days by H and E staining based analysis. The data set is classed as organism-based. Particulars: in vivo, 72 h, time 3 day.
Data set [16] is described as follows: AUC (0 to infinity) in Sprague-Dawley rat at 20 mg/kg, po measured upto 1440 mins by LC-MS/MS analysis. The data set is classed as ADME, organism-based. Particulars: in vivo, 24 h.
Data set [17] can be described thus: Clearance in Sprague-Dawley rat at 20 mg/kg, ip measured upto 1440 mins by LC-MS/MS analysis. Particulars: in vivo. It is filed as ADME, organism-based.
Data set [18] is described as follows: Toxicity in BALB/c mouse assessed as effect on serum AST level at 30 mg/kg, ip measured after 3 days by biochemical analysis. Particulars: in vivo, 72 h, time 3 day. It is filed as organism-based.
A short description of data set [19]: Volume of distribution at steady state in Sprague-Dawley rat at 5 mg/kg, iv measured upto 1440 mins by LC-MS/MS analysis. Particulars: in vivo, read-out: Vdss. The data set is classed as ADME, organism-based.
A short description of data set [20]: Volume of distribution at steady state in Sprague-Dawley rat at 20 mg/kg, ip measured upto 1440 mins by LC-MS/MS analysis. Particulars: in vivo, 24 h. It is filed as ADME, organism-based.
A short description of data set [21]: Oral bioavailability in Sprague-Dawley rat at 20 mg/kg measured upto 1440 mins by LC-MS/MS analysis. The data set is classed as ADME, organism-based. Particulars: in vivo.
The nature of data set [22]: Toxicity in BALB/c mouse assessed as appearance of lesions in liver at 30 mg/kg, ip measured after 3 days by H and E staining based analysis. It is filed as organism-based. Particulars: in vivo, 72 h, time 3 day.
Data set [23] is described as follows: Toxicity in BALB/c mouse assessed as effect on creatinine level at 30 mg/kg, ip measured after 3 days by biochemical analysis. It is filed as organism-based. Particulars: in vivo, 72 h, time 3 day.
A short description of data set [24]: Half life in Sprague-Dawley rat at 20 mg/kg, po measured upto 1440 mins by LC-MS/MS analysis. The data set is classed as ADME, organism-based. Particulars: in vivo.
Data set [25] in a line: Toxicity in BALB/c nude mouse xenografted with human 22Rv1 cells assessed as reduction in body weight at 30 mg/kg, ip measured every 2 days for 28 days. The data set is classed as organism-based, CWR22R. Particulars: in vivo, 672 h, time 28 day.
Data set [26] can be described thus: Toxicity in BALB/c mouse assessed as appearance of lesions in lung at 30 mg/kg, ip measured after 3 days by H and E staining based analysis. It is filed as organism-based. Particulars: in vivo, 72 h, time 3 day.
Another data set relates to CWR22R. The experiment in a line: Antitumor activity against human 22Rv1 cells xenografted in BALB/c nude mouse assessed as tumor growth inhibition at 30 mg/kg, ip measured every 2 days for 28 days relative to control. Particulars: 22Rv1, 672 h, read-out: TGI.
Data set [27] concerns LNCaP. The experiment in a line: cells. Particulars: Homo sapiens, 72 h.
Description: Cytotoxicity against androgen receptor dependent human LNCaP cells assessed as inhibition of cell growth incubated for 72 hrs by MTT assay
For the next data set, the system named is DU-145. The experiment in a line: cells. Particulars: Homo sapiens, DU-145, 72 h.
Data set [28] has as its system LNCaP. The experiment in a line: Antitumor activity against human LNCaP cells xenografted in BALB/c nude mouse assessed as tumor growth inhibition at 30 mg/kg, ip measured every 2 days for 28 days relative to control. Particulars: 672 h, read-out: TGI.

From ChEMBL document CHEMBL5620347, “Discovery of thiohydantoin based antagonists of androgen receptor with efficient degradation for the treatment of prostate cancer” (Eur J Med Chem, 2023) come the findings set out here.

In general, bioavailability refers to the share of a dose that reaches the circulation, judged against a reference dose that is usually intravenous. Read a high bioavailability as good availability. As a reminder, the AUC(0-inf) is the area under the concentration-time curve extrapolated to infinity. Read a low AUC(0-inf) as less exposure. Usually clearance stands for the rate of elimination divided by the concentration. The term half-life denotes the time in which the quantity being followed falls by half. As usually defined, the Cmax is the maximum level reached in the sampled fluid or tissue. Usually AUC stands for concentration integrated over time. Lower therefore signals less exposure. A word on the CL/F: it is clearance divided by bioavailability, as obtained after extravascular dosing. A word on the IC50: it is the concentration at which inhibition is half-maximal. High values mean weaker potency, low ones greater potency.

Description for DU-145: Cytotoxicity against androgen receptor independent human DU-145 cells assessed as inhibition of cell growth incubated for 72 hrs by MTT assay

As to `N#Cc1ccc(N2C(=O)CN(CCCN3CCCc4ccccc43)C2=S)cc1C(F)(F)F`, the bioavailability amounted to 67.2% in data set [1] and 5.74% in [21]. The AUC(0-inf) in [2] was 3500 ng·h/mL; in data set [12], 9160 ng·h/mL. For the same compound, the Activity entry in [3], in data set [4], in data set [5], in [10], in data set [11] and in [14] was “Non-Toxic” each time. Besides, the Activity entry in data set [15], in data set [18], in data set [22], in data set [23], in data set [25] and in data set [26] was “Non-Toxic” throughout. The Vdss is 16.72 L/kg in data set [6] and 8.77 L/kg in [20]. Also, the CL in [7] was determined as 84.8 mL/min/kg. In addition, the clearance in data set [8] was 15.7 mL/min/kg. In addition, the results for the half-life in data set [9] and in data set [24] were 5.02 h and 3.06 h, respectively. Moreover, the peak level in [13] (Cmax) was 92.1 ng/mL. In data set [16], this compound yielded an AUC of 805.18 ng·h/mL. Besides, the CL/F in data set [17] is 60.2 mL/min/kg. Also, in data set [19], the Vd is 6.9 L/kg.
Consider `CNC(=O)c1ccc(N2C(=S)N(c3ccc(C#N)c(C(F)(F)F)c3)C(=O)C2(C)C)cc1F` [ENZALUTAMIDE], for which the inhibition in vivo at 30 mg/kg in the data set with CWR22R was 39.9%; with LNCaP [28], 41.5%. Besides, the 50% inhibitory concentration (IC50) was 13.9 µM with LNCaP [27] and above 50 µM in the data set with DU-145.
